Source: patent US20260324636A1, “COMPOSITION FOR PROVIDING PLANT WITH STRESS RESISTANCE” (KIRIN HOLDINGS KABUSHIKI KAISHA, priority 2022, published 2026)

What was measured:
[1] = system: Arabidopsis thaliana; assay: Oxidation stress resistance against methyl viologen (leaf chlorosis, chlorophyll content), Example 8; type: in vivo, Arabidopsis thaliana (Col-0); conditions: with 5 μM methyl viologen, 2 days
Description: A wild-type Arabidopsis thaliana strain (accession: Col-0) was used as an experimental material. Seeds were purchased from Inplanta Innovations Inc.
A Murashige and Skoog Plant Salt Mixture 2.2 g (Nacalai tesque) and sucrose 10 g (FUJIFILM Wako) were dissolved in 1 l of pure water, a pH was adjusted to 5.8, and the resultant was sterilized in an autoclave (121° C., 20 minutes).
Arabidopsis thaliana seeds were sterilized by incubation with the use of a Kitchen Haiter® (Kao Corporation) diluted to 2-fold with pure water for 3 minutes. After the seeds were washed with sterile water 3 times, the seeds soaked in sterile water were incubated at 4° C. in the dark for 1 day in order to germinate the seeds at the same time. […]
Leaf chlorosis is observed in plants upon oxidation stress exposure. Thus, an extent of chlorosis was evaluated by measuring the content of the green pigment chlorophyll in leaves. The chlorophyll content was quantified in accordance with the method of Yamaguchi et al. (Nature Commun., Jun. 9, 2021; 12 [1]: 3480). […] The absorbance of the extract was measured at 647 nm and 664 nm, respectively, to calculate the chlorophyll content. The chlorophyll content was calculated in accordance with the formula: 19.43×A647+8.05×A664. The calculated value was divided by the plant weight per well, so as to eliminate the influence of individual sizes.

[2] = system: H1HSFA2; assay: H1HSFA2 gene expression by real-time PCR, Example 7; type: in vivo, hop; conditions: 1 mM in medium, 20° C. for 2 hours, leaves; read-out: H1HSFA2 expression level, increase vs control
From the text: In order to design primers for the target genes necessary for gene expression analysis by real-time PCR, homologs of Arabidopsis thaliana high-temperature-responsive genes in hop were searched for. The amino acid sequences of Arabidopsis thaliana HSFA2 (AGI code: AT2G26150) and HSP17.6C (AGI code: AT1G53540) were obtained from TAIR (https://www.arabidopsis.org/), and the nucleotide sequences of the gene homologs were obtained using Hopbase (https://hopbase.cgrb.oregonstate.edu/). […] As the reference gene, the nucleotide sequence of the homolog of Arabidopsis thaliana EF1α (AGI code: AT1G18070) was obtained. The hop homolog genes were designated as H1HSFA2, H1HSP17.6C, and HIEF1α, respectively.
The materials as used in Example 4 were used.
The methods as employed in Example 4 were employed.
The leaves in the first and the second nodes from the apical buds of the tissue-cultured seedlings were sampled 1.5 months after the initiation of subculture and inoculated into a liquid medium consisting of a ½ Murashige and Skoog Plant Salt Mixture and 2 (w/v) % glucose. Specifically, a liquid medium was dispensed at 5 ml/well to a 6-well microplate (IWAKI), and 5 hop leaves were mounted thereon. […]
(§1) Thereafter, the relative expression level of the target gene upon N-acetylglutamic acid treatment was calculated by the ΔΔCt method.

[3] = system: OsZAT12; assay: OsZAT12 gene expression by real-time PCR, Example 12; type: in vivo, rice; conditions: Oryza sativa; 0.5 mM in medium, 30° C. for 2 hours, aboveground part; read-out: OsZAT12 expression level, increase vs control
From the text: In order to design primers for the target genes necessary for gene expression analysis by real-time PCR, homologs of Arabidopsis thaliana high-temperature-responsive genes in rice were searched for. The amino acid sequence of Arabidopsis thaliana ZAT12 (AGI code: AT5G59820) was obtained from TAIR (https://www.arabidopsis.org/), and the nucleotide sequence of the homolog was obtained using RAP-DB (https://rapdb.dna.affrc.go.jp/). As a reference gene, the nucleotide sequence of the homolog of Arabidopsis thaliana ACTIN2 (AGI code: AT3G18780) was also obtained. Homolog genes in rice were designated as OsZAT12 and OsACT1, respectively.
The materials as employed in Example 3 were used.
The method as employed in Example 3 was employed.
The rice samples subjected to germination for 3 days were inoculated into a liquid medium consisting of a ½ Murashige and Skoog Plant Salt Mixture. Specifically, a liquid medium was dispensed at 3 ml/well to a 12-well microplate (IWAKI), and 3 samples were transferred to each well. N-acetylglutamic acid was applied to each well to the final concentration of 0.5 mM in the medium, incubation was performed at 30° C. for 2 hours, and RNA was extracted from the aboveground part using the RNeasy Plant Mini Kit. […]
as §1

`CC(=O)N[C@@H](CCC(=O)O)C(=O)O` [N-acetylglutamic acid] was tested, and the “chlorophyll content of the MV-treated groups” value ([1]; 0, 0.01, 0.1, and 0.4 mM, fresh weight basis) was “increased as the N-acetylglutamic acid concentration was increased”, the “leaf chlorosis in MV-treated group” value ([1]; 0.4 mM) was “substantially no leaf chlorosis was observed” and the fold induction at 1000 µM [2] was 1.7. The fold induction at 500 µM [3] was 2.9.
